Test system: One-year old yellow perch
Assay: yellow perch gill structure after three weeks exposure
Assay type: in vivo
Settings: added to extract solution
Description: In an attempt to establish a causative link with chemical constituents of test pond water caps, laboratory tests examined the effect of exposure to a naphthenic acid extract from fresh WIP MFT release water on perch gill structure. […] Sulphate and naphthenic acids comprise two of the main constituents of concern in capping water and may act in concert to induce gill damage. The resulting reduced gill surface area likely led to restricted transport of both naphthenic acids and oxygen into the perch body. […] The gill aneurysms presumably occur because the outer layer of the gill has been damaged.

## O=S(=O)([O-])[O-].[Na+].[Na+] [sodium sulphate]
  effect of addition to the naphthenic acid extract solution on gill toxicity: exacerbated the expression of toxicity
